Patent US20030153051A1, “Cholesterol oxidase” (priority 1998, published 2003)
“Also recorded” adds a separate entry of the source.

What was measured:
[1] = tested on: cholesterol oxidase derived from ST-200 strain; test: Effect of metal ions and the like on enzyme activity; type: biochemical, Pseudomonas sp. ST-200; settings: for Relative activity (%): pH 7; for Inhibition of enzyme activity (in words): 1 mM
[2] = tested on: cholesterol oxidase derived from ST-200 strain; test: Substrate specificity of enzyme; type: biochemical, Pseudomonas sp. ST-200; settings: for Relative activity (%): various substrates, 30° C., pH 7, enzyme activity with cholesterol set to be 100
[3] = tested on: cholesterol oxidase derived from Pseudomonas sp. ST-200 (FERM BP-6661); test: Effect of metal ions and the like (additives) on enzyme activity; type: biochemical; settings: additive at 1 mM; activity without additive = 100; cholesterol substrate, 30° C., pH 7
Method: Effect of metal ions and the like on the activity of the enzyme obtained in Example 1 was studied. Enzyme activity was measured as described in Test Example 1 at 30° C. at pH 7 after adding various metal compounds, to a final concentration of […], to the reaction system.

[4] = tested on: cholesterol oxidase derived from Brevibacterium sp.; test: Enzyme kinetics (Km, Vmax) of cholesterol oxidation, Lineweaver-Burk; type: biochemical; settings: 30° C., pH 7
Method: (§1) Enzyme activity was measured as described in Test Example 1 at 30° C. at pH 7.

[5] = tested on: cholesterol oxidase derived from Nocardia erythropolis; test: as above; type: biochemical; settings: 30° C., pH 7
Method: as §1

[6] = tested on: cholesterol oxidase derived from Pseudomonas sp. (comparison); test: as above; type: biochemical; settings: 30° C., pH 7
Method: as §1

[7] = tested on: cholesterol oxidase derived from Pseudomonas sp. ST-200 (FERM BP-6661); test: as above; type: biochemical; settings: 30° C., pH 7, 0 to 1 mM cholesterol
Method: as §1

[8] = tested on: cholesterol oxidase derived from Streptomyces sp.; test: as above; type: biochemical; settings: 30° C., pH 7
Method: as §1

[9] = tested on: cholesterol oxidase derived from ST-200 strain; test: Effect of organic solvents on enzyme activity (ST-200); type: biochemical, Pseudomonas sp. ST-200; settings: for Relative activity, ST-200: organic solvent 50% by volume of reaction solution, pH 7, 30° C., no solvent = 1; for Reaction velocity in solvent compared to cholesterol oxidases of Nocardia erythropolis, Pseudomonas sp., Streptomyces sp., Brevibacterium sp. (in words): organic solvent 50% by volume, 30° C., pH 7
[10] = tested on: cholesterol oxidase derived from Nocardia erythropolis; test: Effect of organic solvents on enzyme activity (Nocardia erythropolis); type: biochemical; settings: organic solvent 50% by volume of reaction solution; pH 7, 30° C.; no solvent = 1
[11] = tested on: cholesterol oxidase derived from Pseudomonas sp.; test: Effect of organic solvents on enzyme activity (Pseudomonas sp.); type: biochemical; settings: organic solvent 50% by volume of reaction solution; pH 7, 30° C.; no solvent = 1
[12] = tested on: cholesterol oxidase derived from Streptomyces sp.; test: Effect of organic solvents on enzyme activity (Streptomyces sp.); type: biochemical; settings: organic solvent 50% by volume of reaction solution; pH 7, 30° C.; no solvent = 1
[13] = tested on: cholesterol oxidase derived from Brevibacterium sp.; test: Effect of organic solvents on enzyme activity (Brevibacterium sp.); type: biochemical; settings: organic solvent 50% by volume of reaction solution; pH 7, 30° C.; no solvent = 1
[14] = additive 1 mM, 30° C., cholesterol as substrate, activity without additive set to be 100
[15] = 0.03% Triton X-100, 0 to 1 mM cholesterol
[16] = head 0.03% Triton X-100 (0.3% in text)

## O=S(=O)([O-])[O-].[Cu+2] [Copper sulfate]
[1]; [14]
  Relative activity (%): 105%

## CC[C@H](CC[C@@H](C)[C@H]1CC[C@H]2[C@@H]3CC=C4C[C@@H](O)CC[C@]4(C)[C@H]3CC[C@]12C)C(C)C [β-sitosterol, sitost-5-en-3β-ol]
[2]
  Action of the enzyme on the substrate (in words): strongly oxidized
  Relative activity (%): 84%

## c1cnc2c(c1)ccc1cccnc12 [o-phenanthroline]
[3]
  Relative activity: 92%

## CC(C)CCC[C@@H](C)[C@H]1CC[C@H]2[C@@H]3CC=C4C[C@@H](O)CC[C@]4(C)[C@H]3CC[C@]12C [Cholesterol, cholest-5-en-3β-ol]
[2]
  Action of the enzyme on the substrate (in words): strongly oxidized
  Relative activity (%): 100%
[4]; [15]
  Km: 63.3 µM
  Vmax: 12.0 µmol/min/mg
[4]; [16]
  Km: 925 µM
  Vmax: 11.3 µmol/min/mg
[5]; [15]
  Km: 5.14 µM
  Vmax: 9.8 µmol/min/mg
[5]; [16]
  Km: 44 µM
  Vmax: 6.8 µmol/min/mg
[6]; [15]
  Km: 9.41 µM
  Vmax: 11.0 µmol/min/mg
[6]; [16]
  Km: 76.1 µM
  Vmax: 10.3 µmol/min/mg
[7]; 0.03% Triton X-100
  Km: 4.04 µM
  Vmax: 13.1 µmol/min/mg
[7]; [16]
  Km: 52.2 µM
  Vmax: 12.1 µmol/min/mg
[8]; [15]
  Km: 16.3 µM
  Vmax: 15.8 µmol/min/mg
[8]; [16]
  Km: 160 µM
  Vmax: 15.3 µmol/min/mg

## C1CCCCCCC1 [Cyclooctane]
[9]
  Effect of organic solvent on reaction velocity (in words): increased
  Relative activity, ST-200: 1.4
  Reaction velocity in solvent compared to cholesterol oxidases of Nocardia erythropolis, Pseudomonas sp., Streptomyces sp., Brevibacterium sp. (in words): higher reaction velocity
[10]
  Relative activity, Nocardia erythropolis: 1.1
[11]
  Relative activity, Pseudomonas sp.: 0.8
[12]
  Relative activity, Streptomyces sp.: 0.4
[13]
  Relative activity, Brevibacterium sp.: 0.2

## C[C@]12CC[C@H](O)CC1=CC[C@@H]1[C@@H]2CC[C@]2(C)C(=O)CC[C@@H]12 [Dehyoepiandrosterone, 3β-Hydroxyandrost-5-en-17-one]
[2]
  Relative activity (%): 16%

## CC(C)[C@@H](C)C=C[C@@H](C)[C@H]1CC[C@H]2C3=CC=C4C[C@@H](O)CC[C@]4(C)[C@H]3CC[C@]12C [Ergosterol, Ergosta-5,7,22-trien-3β-ol]
[2]
  Relative activity (%): 20%

## Oc1cccc2cccnc12 [8-hydroxyquinoline, reference compound]
[1]
  Relative activity (%): 85%

## [Cl-].[Cl-].[Mg+2] [Magnesium chloride]
[1]
  Relative activity (%): 102%

## [Cl][Ni][Cl] [Nickel chloride]
[1]
  Relative activity (%): 90%

## CC(C)CCC[C@@H](C)[C@H]1CC[C@H]2[C@@H]3CC[C@H]4C[C@@H](O)CC[C@]4(C)[C@H]3CC[C@]12C [β-cholestanol]
[2]
  Action of the enzyme on the substrate (in words): strongly oxidized
  Relative activity (%): 69%

## Iron sulfate
[1]; [14]
  Relative activity (%): 94%

## Manganese chloride
[1]; [14]
  Relative activity (%): 92%

## Cc1ccccc1 [Toluene]
[9]
  Effect of organic solvent on reaction velocity (in words): increased
  Relative activity, ST-200: 3.5
  Reaction velocity in solvent compared to cholesterol oxidases of Nocardia erythropolis, Pseudomonas sp., Streptomyces sp., Brevibacterium sp. (in words): higher reaction velocity
[10]
  Relative activity, Nocardia erythropolis: 1.7
[11]
  Relative activity, Pseudomonas sp.: 1.4
[12]
  Relative activity, Streptomyces sp.: 1.2
[13]
  Relative activity, Brevibacterium sp.: 0.5

## c1ccc(-c2ccccn2)nc1 [α,α-dipyridyl]
[3]
  Relative activity: 98%

## c1ccc(-c2ccccn2)nc1 [α,α-dipyridyl, reference compound]
[1]
  Relative activity (%): 98%

## C[C@]12CC[C@H](O)C[C@@H]1CC[C@@H]1[C@@H]2CC[C@]2(C)C(=O)CC[C@@H]12 [Epiandrosterone, 5α-androstan-3β-ol-17-one]
[2]
  Relative activity (%): 10%

## CC(=O)[C@H]1CC[C@H]2[C@@H]3CC=C4C[C@@H](O)CC[C@]4(C)[C@H]3CC[C@]12C [Pregnenolone, 3β-Hydroxypregn-5-en-20-one]
[2]
  Relative activity (%): 32%

## [Cl-].[Cl-].[Zn+2] [Zinc chloride]
[1]
  Relative activity (%): 92%

## O=[N+]([O-])[O-].[Ag+] [Silver nitrate]
[1]; [14]
  Relative activity (%): 2%
[1]; cholesterol as substrate
  Inhibition of enzyme activity (in words): inhibited; also recorded: strongly inhibited

## [Cl][Hg][Cl] [Mercury chloride]
[1]; [14]
  Relative activity (%): 0%
[1]; cholesterol as substrate
  Inhibition of enzyme activity (in words): inhibited; also recorded: strongly inhibited

## c1ccc(Cc2ccccc2)cc1 [Diphenylmethane]
[9]
  Effect of organic solvent on reaction velocity (in words): increased
  Relative activity, ST-200: 3.1
  Reaction velocity in solvent compared to cholesterol oxidases of Nocardia erythropolis, Pseudomonas sp., Streptomyces sp., Brevibacterium sp. (in words): higher reaction velocity
[10]
  Relative activity, Nocardia erythropolis: 1.6
[11]
  Relative activity, Pseudomonas sp.: 1.5
[12]
  Relative activity, Streptomyces sp.: 1.0
[13]
  Relative activity, Brevibacterium sp.: 0.8

## O=C(O)CN(CCN(CC(=O)O)CC(=O)O)CC(=O)O [EDTA]
[3]
  Relative activity: 88%

## CCCc1ccccc1 [Propylbenzene]
[9]
  Effect of organic solvent on reaction velocity (in words): increased
  Relative activity, ST-200: 3.2
  Reaction velocity in solvent compared to cholesterol oxidases of Nocardia erythropolis, Pseudomonas sp., Streptomyces sp., Brevibacterium sp. (in words): higher reaction velocity
[10]
  Relative activity, Nocardia erythropolis: 1.6
[11]
  Relative activity, Pseudomonas sp.: 1.3
[12]
  Relative activity, Streptomyces sp.: 1.1
[13]
  Relative activity, Brevibacterium sp.: 0.8

## CC(C)CCC[C@@H](C)[C@H]1CC[C@H]2[C@@H]3CC=C4C[C@H](O)CC[C@]4(C)[C@H]3CC[C@]12C [Epicholesterol, Cholest-5-en-3α-ol]
[2]
  Action of the enzyme on the substrate (in words): does not act on; also recorded: did not act on
  Relative activity (%): 0%

## Cc1ccc(C)cc1 [Paraxylene]
[9]
  Effect of organic solvent on reaction velocity (in words): increased
  Relative activity, ST-200: 3.4
  Reaction velocity in solvent compared to cholesterol oxidases of Nocardia erythropolis, Pseudomonas sp., Streptomyces sp., Brevibacterium sp. (in words): higher reaction velocity
[10]
  Relative activity, Nocardia erythropolis: 1.6
[11]
  Relative activity, Pseudomonas sp.: 1.5
[12]
  Relative activity, Streptomyces sp.: 1.1
[13]
  Relative activity, Brevibacterium sp.: 0.7

## ClC(Cl)Cl [Chloroform]
[9]
  Relative activity, ST-200: 0.2
[10]
  Relative activity, Nocardia erythropolis: 0.3
[11]
  Relative activity, Pseudomonas sp.: 0.1
[12]
  Relative activity, Streptomyces sp.: 0.1
[13]
  Relative activity, Brevibacterium sp.: <0.1

## c1ccccc1 [Benzene]
[9]
  Effect of organic solvent on reaction velocity (in words): increased
  Relative activity, ST-200: 3.0
  Reaction velocity in solvent compared to cholesterol oxidases of Nocardia erythropolis, Pseudomonas sp., Streptomyces sp., Brevibacterium sp. (in words): higher reaction velocity
[10]
  Relative activity, Nocardia erythropolis: 1.5
[11]
  Relative activity, Pseudomonas sp.: 1.3
[12]
  Relative activity, Streptomyces sp.: 0.9
[13]
  Relative activity, Brevibacterium sp.: 0.5

## [Ca+2].[Cl-].[Cl-] [Calcium chloride]
[1]
  Relative activity (%): 106%
